This assay has as its system Matsutake hyphae (strain Tm 89). Put plainly: Growth of Matsutake hyphae in soil containing Tween 80 additive, determined by ergosterol amount. It is filed as cell-based, Tricholoma Matsutake. Particulars: Tween 80 additive 1, 2 or 5 wt % vs 0 wt %, 20 wt % of soil, one month incubation at 25±1° C. in the dark, FIG. 1. Here is the method: The culture substrate containing an active principle prepared as described above is put into a sterile container (a Petri-dish, etc.). A hypha solution containing Matsutake hyphae is inoculated into the culture substrate in the sterile container such that the hypha solution is spread throughout the culture substrate. Culture of Matsutake hyphae can be performed at 25±1° C. in the dark. After 1 to 3 month's culture of Matsutake hyphae, a piece of the grown hyphae (i.e., a Shiro) are taken as a sample, and the growth amount of the hyphae is determined based on the amount of ergosterol. Ergosterol can be quantified as follows. After a sample of a Shiro is freeze-dried (EYELA, FDU-830), 1 g of the sample is taken and extracted with 2.5 mL of ethanol (99.5%). The obtained extract is loaded into HPLC (high-performance liquid chromatography; HITACHI, Column L-7300; UV Detector L-7400; Autosampler L-7200; Pump L-7100; Integrator D-7500) to quantify the amount of ergosterol in the extract. With respect to the details of the quantification procedure, reference should be made to Martin et al. (1990) Mycol. Res. 94: 1059-1064. About one week after the initiation of the culture, it is observed that the hyphae are grown on the surface of the culture substrate. About 4 weeks after the initiation of the culture, increase in the growth amount of the hyphae is found. […]

Consider 1 compound from patent publication US6803226B2, “Method of forming an artificial Shiro of Matsutake” (The University of Tokyo, priority 2001, dated 2004).

Turning to `CCCCCCCC/C=C\CCCCCCCC(=O)OCCOCC(OCCO)C1OCC(OCCO)C1OCCO` (stereo not shown) [Tween 80, Polyoxyethylene (20) Sorbitan Monooleate], the “growth of Matsutake hyphae (amount of ergosterol)” value is listed as “significantly enhanced”.
